From the NIST ThermoML archive (doi:10.1016/j.jct.2015.12.029)
Numbers after ± are expanded uncertainties.

Experiment: mn = molality of the nth substance listed, in mol/kg
Settings: 100 kPa, Liquid; for molar conductivity: Alternating current cell with electrodes; for mass density: Vibrating tube method, m1 = 0.009397

SMILES: CCn1cc[n+](C)c1.F[B-](F)(F)F [1-ethyl-3-methylimidazolium tetrafluoroborate] + CCCCO
- molar conductivity (283.15 K, m1 = 3.974e-05): 0.00127 ± 1.3e-05 S·m2/mol
- molar conductivity (283.15 K, m1 = 6.936e-05): 0.001204 ± 1.2e-05 S·m2/mol
- molar conductivity (283.15 K, m1 = 0.0001047): 0.00115 ± 1.2e-05 S·m2/mol
- molar conductivity (283.15 K, m1 = 0.0001865): 0.00106 ± 1.1e-05 S·m2/mol
- molar conductivity (283.15 K, m1 = 0.0002945): 0.000977 ± 1.1e-05 S·m2/mol
- molar conductivity (283.15 K, m1 = 0.0004005): 0.000913 ± 1e-05 S·m2/mol
- molar conductivity (283.15 K, m1 = 0.000688): 0.000802 ± 9e-06 S·m2/mol
- molar conductivity (283.15 K, m1 = 0.0009724): 0.000729 ± 8e-06 S·m2/mol
- molar conductivity (283.15 K, m1 = 0.001464): 0.000642 ± 8e-06 S·m2/mol
- molar conductivity (283.15 K, m1 = 0.001942): 0.000597 ± 7e-06 S·m2/mol
- molar conductivity (283.15 K, m1 = 0.002839): 0.000519 ± 7e-06 S·m2/mol
- mass density (283.15 K): 817.716 ± 0.22 kg/m3
- molar conductivity (288.15 K, m1 = 3.974e-05): 0.00144 ± 1.5e-05 S·m2/mol
- molar conductivity (288.15 K, m1 = 6.936e-05): 0.00138 ± 1.4e-05 S·m2/mol
- molar conductivity (288.15 K, m1 = 0.0001047): 0.00132 ± 1.4e-05 S·m2/mol
- molar conductivity (288.15 K, m1 = 0.0001865): 0.00121 ± 1.3e-05 S·m2/mol
- molar conductivity (288.15 K, m1 = 0.0002945): 0.00111 ± 1.2e-05 S·m2/mol
- molar conductivity (288.15 K, m1 = 0.0004005): 0.00104 ± 1.1e-05 S·m2/mol
- molar conductivity (288.15 K, m1 = 0.000688): 0.000915 ± 1.1e-05 S·m2/mol
- molar conductivity (288.15 K, m1 = 0.0009724): 0.00083 ± 9e-06 S·m2/mol
- molar conductivity (288.15 K, m1 = 0.001464): 0.000733 ± 9e-06 S·m2/mol
- molar conductivity (288.15 K, m1 = 0.001942): 0.000668 ± 8e-06 S·m2/mol
- molar conductivity (288.15 K, m1 = 0.002839): 0.000592 ± 8e-06 S·m2/mol
- mass density (288.15 K): 813.954 ± 0.22 kg/m3
- molar conductivity (293.15 K, m1 = 3.974e-05): 0.00165 ± 1.7e-05 S·m2/mol
- molar conductivity (293.15 K, m1 = 6.936e-05): 0.00158 ± 1.6e-05 S·m2/mol
- molar conductivity (293.15 K, m1 = 0.0001047): 0.001505 ± 1.5e-05 S·m2/mol
- molar conductivity (293.15 K, m1 = 0.0001865): 0.00138 ± 1.5e-05 S·m2/mol
- molar conductivity (293.15 K, m1 = 0.0002945): 0.00127 ± 1.4e-05 S·m2/mol
- molar conductivity (293.15 K, m1 = 0.0004005): 0.00119 ± 1.3e-05 S·m2/mol
- molar conductivity (293.15 K, m1 = 0.000688): 0.00104 ± 1.2e-05 S·m2/mol
- molar conductivity (293.15 K, m1 = 0.0009724): 0.000943 ± 1.1e-05 S·m2/mol
- molar conductivity (293.15 K, m1 = 0.001464): 0.000833 ± 1e-05 S·m2/mol
- molar conductivity (293.15 K, m1 = 0.001942): 0.000762 ± 9e-06 S·m2/mol
- molar conductivity (293.15 K, m1 = 0.002839): 0.000671 ± 9e-06 S·m2/mol
- mass density (293.15 K): 810.164 ± 0.22 kg/m3
- molar conductivity (298.15 K, m1 = 3.974e-05): 0.00188 ± 1.9e-05 S·m2/mol
- molar conductivity (298.15 K, m1 = 6.936e-05): 0.0018 ± 1.8e-05 S·m2/mol
- molar conductivity (298.15 K, m1 = 0.0001047): 0.00172 ± 1.8e-05 S·m2/mol
- molar conductivity (298.15 K, m1 = 0.0001865): 0.00157 ± 1.7e-05 S·m2/mol
- molar conductivity (298.15 K, m1 = 0.0002945): 0.00144 ± 1.6e-05 S·m2/mol
- molar conductivity (298.15 K, m1 = 0.0004005): 0.00134 ± 1.4e-05 S·m2/mol
- molar conductivity (298.15 K, m1 = 0.000688): 0.00117 ± 1.4e-05 S·m2/mol
- molar conductivity (298.15 K, m1 = 0.0009724): 0.00106 ± 1.2e-05 S·m2/mol
- molar conductivity (298.15 K, m1 = 0.001464): 0.000942 ± 1.1e-05 S·m2/mol
- molar conductivity (298.15 K, m1 = 0.001942): 0.000859 ± 1e-05 S·m2/mol
- molar conductivity (298.15 K, m1 = 0.002839): 0.000759 ± 1e-05 S·m2/mol
- mass density (298.15 K): 806.357 ± 0.22 kg/m3
- molar conductivity (303.15 K, m1 = 3.974e-05): 0.00213 ± 2.2e-05 S·m2/mol
- molar conductivity (303.15 K, m1 = 6.936e-05): 0.00203 ± 2.1e-05 S·m2/mol
- molar conductivity (303.15 K, m1 = 0.0001047): 0.00193 ± 2e-05 S·m2/mol
- molar conductivity (303.15 K, m1 = 0.0001865): 0.00177 ± 1.9e-05 S·m2/mol
- molar conductivity (303.15 K, m1 = 0.0002945): 0.00162 ± 1.8e-05 S·m2/mol
- molar conductivity (303.15 K, m1 = 0.0004005): 0.00151 ± 1.6e-05 S·m2/mol
- molar conductivity (303.15 K, m1 = 0.000688): 0.00131 ± 1.5e-05 S·m2/mol
- molar conductivity (303.15 K, m1 = 0.0009724): 0.00119 ± 1.3e-05 S·m2/mol
- molar conductivity (303.15 K, m1 = 0.001464): 0.00106 ± 1.3e-05 S·m2/mol
- molar conductivity (303.15 K, m1 = 0.001942): 0.000961 ± 1.1e-05 S·m2/mol
- molar conductivity (303.15 K, m1 = 0.002839): 0.000848 ± 1.1e-05 S·m2/mol
- mass density (303.15 K): 802.519 ± 0.22 kg/m3
- molar conductivity (308.15 K, m1 = 3.974e-05): 0.002402 ± 2.4e-05 S·m2/mol
- molar conductivity (308.15 K, m1 = 6.936e-05): 0.00228 ± 2.3e-05 S·m2/mol
- molar conductivity (308.15 K, m1 = 0.0001047): 0.00217 ± 2.2e-05 S·m2/mol
- molar conductivity (308.15 K, m1 = 0.0001865): 0.00198 ± 2.1e-05 S·m2/mol
- molar conductivity (308.15 K, m1 = 0.0002945): 0.00181 ± 2e-05 S·m2/mol
- molar conductivity (308.15 K, m1 = 0.0004005): 0.00169 ± 1.8e-05 S·m2/mol
- molar conductivity (308.15 K, m1 = 0.000688): 0.00146 ± 1.7e-05 S·m2/mol
- molar conductivity (308.15 K, m1 = 0.0009724): 0.00133 ± 1.5e-05 S·m2/mol
- molar conductivity (308.15 K, m1 = 0.001464): 0.00117 ± 1.4e-05 S·m2/mol
- molar conductivity (308.15 K, m1 = 0.001942): 0.00107 ± 1.2e-05 S·m2/mol
- molar conductivity (308.15 K, m1 = 0.002839): 0.000941 ± 1.2e-05 S·m2/mol
- mass density (308.15 K): 798.653 ± 0.23 kg/m3
- molar conductivity (313.15 K, m1 = 3.974e-05): 0.00268 ± 2.7e-05 S·m2/mol
- molar conductivity (313.15 K, m1 = 6.936e-05): 0.00255 ± 2.6e-05 S·m2/mol
- molar conductivity (313.15 K, m1 = 0.0001047): 0.00242 ± 2.5e-05 S·m2/mol
- molar conductivity (313.15 K, m1 = 0.0001865): 0.0022 ± 2.3e-05 S·m2/mol
- molar conductivity (313.15 K, m1 = 0.0002945): 0.00201 ± 2.2e-05 S·m2/mol
- molar conductivity (313.15 K, m1 = 0.0004005): 0.00187 ± 2e-05 S·m2/mol
- molar conductivity (313.15 K, m1 = 0.000688): 0.00162 ± 1.9e-05 S·m2/mol
- molar conductivity (313.15 K, m1 = 0.0009724): 0.00147 ± 1.7e-05 S·m2/mol
- molar conductivity (313.15 K, m1 = 0.001464): 0.00129 ± 1.6e-05 S·m2/mol
- molar conductivity (313.15 K, m1 = 0.001942): 0.00118 ± 1.4e-05 S·m2/mol
- molar conductivity (313.15 K, m1 = 0.002839): 0.00103 ± 1.4e-05 S·m2/mol
- mass density (313.15 K): 794.75 ± 0.23 kg/m3
- molar conductivity (318.15 K, m1 = 3.974e-05): 0.003 ± 3e-05 S·m2/mol
- molar conductivity (318.15 K, m1 = 6.936e-05): 0.00284 ± 2.9e-05 S·m2/mol
- molar conductivity (318.15 K, m1 = 0.0001047): 0.00269 ± 2.8e-05 S·m2/mol
- molar conductivity (318.15 K, m1 = 0.0001865): 0.00244 ± 2.6e-05 S·m2/mol
- molar conductivity (318.15 K, m1 = 0.0002945): 0.00222 ± 2.5e-05 S·m2/mol
- molar conductivity (318.15 K, m1 = 0.0004005): 0.00206 ± 2.2e-05 S·m2/mol
- molar conductivity (318.15 K, m1 = 0.000688): 0.00178 ± 2.1e-05 S·m2/mol
- molar conductivity (318.15 K, m1 = 0.0009724): 0.00161 ± 1.8e-05 S·m2/mol
- molar conductivity (318.15 K, m1 = 0.001464): 0.00142 ± 1.7e-05 S·m2/mol
- molar conductivity (318.15 K, m1 = 0.001942): 0.00129 ± 1.5e-05 S·m2/mol
- molar conductivity (318.15 K, m1 = 0.002839): 0.00114 ± 1.5e-05 S·m2/mol
- mass density (318.15 K): 790.804 ± 0.23 kg/m3
